“Also recorded” adds a separate entry of the source.
Assays:
[1] = system: CD40; test: Flow cytometry of CD40 surface antigen in IFNγ-activated human macrophages; assay type: cell-based; details: compound 4 at 10 μM, compound 5 at 25 μM, hydrochloride
Description: (§1) Surface antigen expression analysis. To study membrane receptor expression, THP1-derived human macrophages (750×10^4 cells/mL) were pretreated for 3 h with DMSO or compounds 4 and 5, and then left untreated (control) or treated for 48 h with 50 U/mL IFNγ. The expression level of MHC-II and CD40 was evaluated by flow cytometry as described.^21-23

[2] = system: macrophage-like J774A.1 cells; test: IFNγ/TNFα-induced NO production (Griess) in J774A.1 cells; assay type: cell-based, murine; details: pretreatment then IFNγ and TNFα, hydrochloride
Description: (§2) Evaluation of NO and Urea production by chemical methods. The MB49-I cells and the J774A.1 cells (25×10^3 cells/well) were grown and pretreated, as indicated, with various anti-inflammatory derivatives, precursors and mono-functional derivatives for a period of 3 h. Afterwards the cells were washed twice with 10% FBS RPMI-1640 and then activated to produce NO for a period of 24 h with cytokines INFγ and TNFα. NO production was measured using the Griess reagent method as previously described.^27 This method involves the detection of nitrite ions (NO2^−) formed by the spontaneous oxidation of NO under physiological conditions. According the manufacture procedure (Life Technologies; # G-7921), equal volumes of sulfanilic acid and N-(1-naphthyl)ethylenediamine are mixed together to form the Griess reagent. In the presence of NO2^−, sulfanilic acid is converted to a diazonium salt, which in turn is coupled to N-(1-naphthyl)ethylenediamine to produce a pink coloration that is measured with a spectrophotometer (Biotek, synergy HT) at 548 nm. In the same manner, urea synthesis through arginase-1 activity was measured using commercially available kit.

[3] = system: STAT3; test: Western blot of phosphorylated STAT3 in IL6-activated human macrophages; assay type: cell-based; details: human macrophages pretreated 30 min at 10 and 50 μM; 30 min activation with 25 ng/mL IL6; hydrochloride
Description: (§3) Cell signaling studies: THP1-derived human macrophages (750×10^3 cells/mL) and MB49-I cells (500×10^3 cells/mL) were pretreated for 30 min with vehicle (DMSO), compounds 4 and 5, at 10, 25 or 50 μM; and then washed and recovered immediately (t=0 min) or after 30 min of activation with 50 U/mL IFNγ, 25 ng/mL IL6, or 10 ng/mL TNFα. Cell lysates were prepared and analyzed by immunoblotting as described.^21-23,25 Briefly, protein samples were resolved by SDS-PAGE under reducing conditions and transferred onto a PVDF membrane. Blots were first probed with rabbit polyclonal antibodies against phospho-STAT1 (pSTAT1), pSTAT3, or p-IκB (all at 1:2000) overnight at 4° C. Blots were then incubated with HRP-conjugated goat anti-rabbit IgG Ab (1:3000) for 1 h at room temperature. The same blots were stripped and then probed with anti-STAT1 or anti-STAT3 Abs (both at 1:1000). In both cases, probed molecules were visualized using an enhancement chemiluminescence detection kit (Thermo Fisher Scientific).

[4] = system: STAT1; test: Western blot of phosphorylated STAT1 in IFNγ-activated human macrophages; assay type: cell-based; details: human macrophages pretreated 30 min at 10 and 50 μM; 30 min activation with 50 U/mL IFNγ; hydrochloride
Description: as §3

[5] = system: MHC-II; test: Flow cytometry of MHC-II surface antigen in IFNγ-activated human macrophages; assay type: cell-based; details: compound 4 at 10 μM, compound 5 at 25 μM, hydrochloride
Description: as §1

[6] = system: UBC cell line MB49-I; test: IFNγ/TNFα-induced NO production (Griess) in MB49-I cells; assay type: cell-based, murine; details: 10 and 50 μM
Description: as §2

[7] = system: human macrophages THP-1 cells; details: 90 min pretreatment, counted after 24 h
[8] = system: MB49-I tumors; test: Ectopic UBC model, MB49-I tumors implanted in the flank of male mice; assay type: in vivo; details: i.p. 150 μM during 18 days, tumors recovered day 20
Description: Ectopic UBC model. Male C57BL/6J mice (6-8 weeks old), each weighing 15-18 g, were used for the experiments (supplied by Charles River). The mice were housed with free access to food and water on a 12:12 h light:dark cycle with the room temperature maintained at 21° C. MB49 cells, MB49-I cells, and iNOS-deficient MB49-I cells ([…] in 100 μL PBS) were injected subcutaneously (s.c.) into the right flank of the mice. Growth rates of the s.c. tumors were monitored. The size of tumors was determined every 3 days for 24-28 days using a digital caliper and by measuring luciferin luminescence at days 15 and 25 using the IVIS imaging system. A blinded observer measured tumor length and width. The volume of the tumor was calculated from the formula: Length×width2×0.52, where length and width were tumor diameters measured with calipers in mutually perpendicular directions. At a tumor size of approximately 10 mm^3 the mice were divided into different groups. A control group received PBS as treatment. As indicated, other groups were treated at different doses (90, 150 or 300 μM) with an intraperitoneal (i.p.) injection of compounds 4 or 8 every 3-4 days for 18-20 days.^24,27

[9] = system: murine UBC MB49-I cells; details: 90 min pretreatment, counted after 24 h
[10] = system: IκB / NFκB signaling pathway; test: Western blot of phosphorylated IκB in LPS-activated RAW 264.7 cells; assay type: cell-based, murine; details: 90 min pretreatment at 20 and 37.5 μM, 100 ng/mL LPS 15 min
[11] = system: STAT1; test: Western blot of phosphorylated STAT1 in IFNγ-activated RAW 264.7 cells; assay type: cell-based, murine; details: 90 min pretreatment at 20 and 37.5 μM, 5 ng/mL IFNγ 15 min
Description: as §3

[12] = system: MB49-I cells; test: LPS/IFNγ-induced NO production in MB49-I cells; assay type: cell-based, murine
Description: as §2, with “Afterwards the cells were washed twice with 10% FBS RPMI-1640 and then activated to produce NO for a period of 24 h with cytokines INFγ and TNFα.” left out

[13] = system: murine macrophages RAW 264.7 cells; details: 90 min pretreatment, counted after 24 h

In the case of Cl.NNC(=O)c1ccc(N2C(=O)C=CC2=O)cc1 [Compound 5, 4-(2,5-dioxo-2,5-dihydro-pyrrol-1-yl)-benzoic acid hydrazide hydrochloride], the “IFNγ-induced CD40 expression” value [1] is reported as “effective in reducing; also recorded: efficiently inhibited”, the “combined IFNγ/TNFα-induced NO synthesis” value [2] is reported as “effective in reducing; also recorded: efficiently inhibited” and the “IL6-induced STAT3 activation (ratio of phosphorylated/no phosphorylated proteins)” value [3] is reported as “decreased; also recorded: efficiently inhibited”. For the same compound, the “IFNγ-induced STAT1 activation (ratio of phosphorylated/no phosphorylated proteins)” value [4] was “decreased; also recorded: efficiently inhibited”, the “IFNγ-induced MHC-II expression” value [5] was “effective in reducing; also recorded: efficiently inhibited” and the “combined IFNγ/TNFα-induced NO synthesis” value [6] was “efficiently inhibited”.
In the case of CC(=O)N(NC(=O)c1ccc(N2C(=O)C=CC2=O)cc1)C(C)=O [Compound 8, 4-(2,5-dioxo-2,5-dihydro-pyrrol-1-yl)-benzoic acid N′-diacetyl-hydrazide], the “cytotoxic effect (cell viability)” value [7] is reported as “lower than that of compound 4”, the “tumor volume of muscle-invasive MB49-I tumors” value [8] is reported as “anti-proliferative activity; also recorded: more efficient than compound 4” and the “cytotoxic effect (cell viability)” value [9] is reported as “lower than that of compound 4”. The “LPS-activated NFκB signaling pathway (ratio p-IkB/IkB)” value [10] was “efficient to inhibit”, the “IFNγ-activated STAT1 signaling pathway (ratio p-STAT1/STAT1)” value [11] was “more efficient than other compounds” and the “IFNγ/LPS-induced NO production” value ([12]; 20 and 37.5 μM) was “more efficient than compound 4”. The “cytotoxic effect (cell viability)” value [13] was “lower than that of compound 4”.
For CC(=O)N(NC(=O)OC(C)(C)C)C(=O)c1ccc(N2C(=O)C=CC2=O)cc1 [Compound 10, N-acetyl-N-[4-(2,5-dioxo-2,5-dihydro-pyrrol-1-yl)-benzoyl]-hydrazinecarboxylic acid tert-butyl ester], the “LPS-activated NFκB signaling pathway (ratio p-IkB/IkB)” value [10] was “efficient to inhibit”.
In the case of CC(=O)N(C(=O)OC(C)(C)C)N(C(C)=O)C(=O)c1ccc(N2C(=O)C=CC2=O)cc1 [Compound 11, N,N′-diacetyl-N′-[4-(2,5-dioxo-2,5-dihydro-pyrrol-1-yl)-benzoyl]-hydrazinecarboxylic acid tert-butyl ester], the “LPS-activated NFκB signaling pathway (ratio p-IkB/IkB)” value [10] is reported as “efficient to inhibit”.
In the case of CC(C)(C)OC(=O)NNC(=O)c1ccc(N2C(=O)CCC2=O)cc1 [Compound 12, N′-[4-(2,5-dioxo-pyrrolidin-1-yl)-benzoyl]-hydrazine carboxylic acid tert-butyl ester], the “LPS/IFNγ-induced NO synthesis” value ([12]; compound 4 at 30 μM, compound 12 at 10, 20, 37.5 and 50 μM) is reported as “lost its anti-inflammatory activity; also recorded: does not affect”.

Source: patent US10759754B2, “Aminobenzoic acid derivatives for use as anti-inflammatory agents, anti-metastatic agents and/or anticancer agents” (3R VALO, S.E.C., priority 2016, dated 2020)
